In ChEMBL document CHEMBL3991601, “The target landscape of clinical kinase drugs” (Science, 2017):
Active and inactive are the calls of the source.

Tests used:
[1] = target: Deoxycytidine kinase (Homo sapiens, UniProt P27707)
[2] = target: T1, Ribosyldihydronicotinamide dehydrogenase [quinone] (Homo sapiens, UniProt P16083)
T1 sequence (P16083 whole entry): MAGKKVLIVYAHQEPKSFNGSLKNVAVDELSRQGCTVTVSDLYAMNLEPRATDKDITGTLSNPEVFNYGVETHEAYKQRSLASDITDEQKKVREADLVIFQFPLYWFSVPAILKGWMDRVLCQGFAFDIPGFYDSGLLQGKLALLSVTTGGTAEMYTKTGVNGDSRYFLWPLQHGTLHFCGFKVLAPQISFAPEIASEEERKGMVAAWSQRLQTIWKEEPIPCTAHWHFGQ

[3] = target: T2, Cytochrome c1, heme protein, mitochondrial (Homo sapiens, UniProt P08574)
T2 sequence (P08574 whole entry): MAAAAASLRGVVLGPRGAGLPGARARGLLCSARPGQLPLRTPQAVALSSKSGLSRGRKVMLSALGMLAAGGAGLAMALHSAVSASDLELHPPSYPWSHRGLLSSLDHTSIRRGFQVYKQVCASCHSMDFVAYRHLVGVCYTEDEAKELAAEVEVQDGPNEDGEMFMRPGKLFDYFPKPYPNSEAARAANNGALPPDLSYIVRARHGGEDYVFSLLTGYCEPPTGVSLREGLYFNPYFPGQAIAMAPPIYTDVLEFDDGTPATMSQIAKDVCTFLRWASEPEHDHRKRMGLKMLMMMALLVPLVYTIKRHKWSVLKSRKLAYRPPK

[4] = target: T3, Aurora kinase A (Homo sapiens, UniProt O14965)
T3 sequence (O14965 whole entry): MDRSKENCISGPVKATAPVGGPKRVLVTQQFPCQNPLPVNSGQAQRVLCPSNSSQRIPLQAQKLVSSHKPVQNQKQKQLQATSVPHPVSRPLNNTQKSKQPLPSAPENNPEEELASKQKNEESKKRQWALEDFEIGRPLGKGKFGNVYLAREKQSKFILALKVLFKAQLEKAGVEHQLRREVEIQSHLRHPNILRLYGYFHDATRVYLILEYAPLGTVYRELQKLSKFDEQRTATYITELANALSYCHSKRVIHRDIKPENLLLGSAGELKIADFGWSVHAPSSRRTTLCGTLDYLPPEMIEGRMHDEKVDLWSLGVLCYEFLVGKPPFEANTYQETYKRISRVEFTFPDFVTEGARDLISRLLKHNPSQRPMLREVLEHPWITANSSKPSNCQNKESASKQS

[5] = target: RAC-alpha serine/threonine-protein kinase (Homo sapiens, UniProt P31749)
[6] = target: Tyrosine-protein kinase Fer (Homo sapiens, UniProt P16591)
[7] = target: Interleukin-1 receptor-associated kinase 1 (Homo sapiens, UniProt P51617)
[8] = target: T4, Mitogen-activated protein kinase kinase kinase 3 (Homo sapiens, UniProt Q99759)
T4 sequence (Q99759 whole entry): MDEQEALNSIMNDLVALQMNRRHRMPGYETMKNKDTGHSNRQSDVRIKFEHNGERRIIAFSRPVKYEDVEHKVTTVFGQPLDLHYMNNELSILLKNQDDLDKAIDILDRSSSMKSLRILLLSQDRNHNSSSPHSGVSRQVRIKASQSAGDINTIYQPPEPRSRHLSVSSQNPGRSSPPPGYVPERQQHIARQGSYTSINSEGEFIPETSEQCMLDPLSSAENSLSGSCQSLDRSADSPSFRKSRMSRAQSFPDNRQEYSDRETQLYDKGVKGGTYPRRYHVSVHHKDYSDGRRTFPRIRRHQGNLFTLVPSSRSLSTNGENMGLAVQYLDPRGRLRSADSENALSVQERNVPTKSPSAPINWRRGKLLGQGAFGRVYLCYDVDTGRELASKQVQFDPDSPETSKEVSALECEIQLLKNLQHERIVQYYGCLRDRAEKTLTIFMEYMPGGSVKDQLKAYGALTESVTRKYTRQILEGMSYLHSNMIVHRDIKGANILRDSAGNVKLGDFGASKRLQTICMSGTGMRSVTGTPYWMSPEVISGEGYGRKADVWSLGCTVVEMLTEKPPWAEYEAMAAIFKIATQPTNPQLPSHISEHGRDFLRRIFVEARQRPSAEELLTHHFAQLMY

[9] = target: Cyclin-dependent kinase 4 (Homo sapiens, UniProt P11802)
[10] = target: T5, Acyl-CoA dehydrogenase family member 10 (Homo sapiens, UniProt Q6JQN1)
T5 sequence (Q6JQN1 whole entry): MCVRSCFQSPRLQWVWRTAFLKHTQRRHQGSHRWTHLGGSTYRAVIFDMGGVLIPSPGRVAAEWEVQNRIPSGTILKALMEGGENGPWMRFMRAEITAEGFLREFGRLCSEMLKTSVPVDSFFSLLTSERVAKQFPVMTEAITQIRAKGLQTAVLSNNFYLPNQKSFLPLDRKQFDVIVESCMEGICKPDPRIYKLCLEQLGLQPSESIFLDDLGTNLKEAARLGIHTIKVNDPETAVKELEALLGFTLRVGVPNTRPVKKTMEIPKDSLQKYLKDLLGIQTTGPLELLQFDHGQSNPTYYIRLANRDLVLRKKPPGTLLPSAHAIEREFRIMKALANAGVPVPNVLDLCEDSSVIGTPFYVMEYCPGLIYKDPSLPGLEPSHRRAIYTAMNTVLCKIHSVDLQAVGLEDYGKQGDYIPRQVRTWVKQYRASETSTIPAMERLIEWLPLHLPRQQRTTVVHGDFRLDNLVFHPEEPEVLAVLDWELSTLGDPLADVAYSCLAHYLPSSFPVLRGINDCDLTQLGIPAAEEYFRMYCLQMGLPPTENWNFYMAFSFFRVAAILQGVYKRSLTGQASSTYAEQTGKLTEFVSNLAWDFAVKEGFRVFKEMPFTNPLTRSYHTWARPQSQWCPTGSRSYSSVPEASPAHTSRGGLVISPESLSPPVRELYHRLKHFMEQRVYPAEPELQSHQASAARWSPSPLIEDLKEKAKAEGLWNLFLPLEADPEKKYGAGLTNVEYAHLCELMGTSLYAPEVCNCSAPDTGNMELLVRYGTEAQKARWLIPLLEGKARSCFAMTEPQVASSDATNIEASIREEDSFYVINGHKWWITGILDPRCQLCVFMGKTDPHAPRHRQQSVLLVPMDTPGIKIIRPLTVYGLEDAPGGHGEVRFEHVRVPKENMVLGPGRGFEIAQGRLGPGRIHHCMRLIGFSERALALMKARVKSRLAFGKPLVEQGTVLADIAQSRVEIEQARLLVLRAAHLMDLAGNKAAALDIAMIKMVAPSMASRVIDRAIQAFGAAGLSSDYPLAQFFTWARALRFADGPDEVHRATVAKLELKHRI
Also: in the data inactive means no Kd found up to 30 µM.

Interleukin-1 receptor-associated kinase 1, sequence (P51617 whole entry): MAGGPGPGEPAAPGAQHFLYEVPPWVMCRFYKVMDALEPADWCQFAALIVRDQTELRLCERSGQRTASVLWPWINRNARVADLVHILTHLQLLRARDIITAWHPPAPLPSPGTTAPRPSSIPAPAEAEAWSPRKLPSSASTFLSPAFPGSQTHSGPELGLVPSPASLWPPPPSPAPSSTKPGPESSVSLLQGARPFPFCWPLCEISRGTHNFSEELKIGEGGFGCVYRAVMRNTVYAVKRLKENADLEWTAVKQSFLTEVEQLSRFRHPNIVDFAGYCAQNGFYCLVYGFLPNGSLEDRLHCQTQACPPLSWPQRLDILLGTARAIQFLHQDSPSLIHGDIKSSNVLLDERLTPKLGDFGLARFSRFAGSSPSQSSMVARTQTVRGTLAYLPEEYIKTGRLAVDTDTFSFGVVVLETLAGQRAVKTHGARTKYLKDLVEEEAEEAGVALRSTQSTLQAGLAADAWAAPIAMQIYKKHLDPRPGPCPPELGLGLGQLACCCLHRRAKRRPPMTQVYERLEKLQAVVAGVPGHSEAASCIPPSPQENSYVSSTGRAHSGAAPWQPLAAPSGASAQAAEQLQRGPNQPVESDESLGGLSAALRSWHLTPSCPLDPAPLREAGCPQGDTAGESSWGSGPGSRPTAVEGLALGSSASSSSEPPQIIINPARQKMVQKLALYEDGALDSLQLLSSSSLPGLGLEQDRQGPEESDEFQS
Tyrosine-protein kinase Fer, sequence (P16591 whole entry): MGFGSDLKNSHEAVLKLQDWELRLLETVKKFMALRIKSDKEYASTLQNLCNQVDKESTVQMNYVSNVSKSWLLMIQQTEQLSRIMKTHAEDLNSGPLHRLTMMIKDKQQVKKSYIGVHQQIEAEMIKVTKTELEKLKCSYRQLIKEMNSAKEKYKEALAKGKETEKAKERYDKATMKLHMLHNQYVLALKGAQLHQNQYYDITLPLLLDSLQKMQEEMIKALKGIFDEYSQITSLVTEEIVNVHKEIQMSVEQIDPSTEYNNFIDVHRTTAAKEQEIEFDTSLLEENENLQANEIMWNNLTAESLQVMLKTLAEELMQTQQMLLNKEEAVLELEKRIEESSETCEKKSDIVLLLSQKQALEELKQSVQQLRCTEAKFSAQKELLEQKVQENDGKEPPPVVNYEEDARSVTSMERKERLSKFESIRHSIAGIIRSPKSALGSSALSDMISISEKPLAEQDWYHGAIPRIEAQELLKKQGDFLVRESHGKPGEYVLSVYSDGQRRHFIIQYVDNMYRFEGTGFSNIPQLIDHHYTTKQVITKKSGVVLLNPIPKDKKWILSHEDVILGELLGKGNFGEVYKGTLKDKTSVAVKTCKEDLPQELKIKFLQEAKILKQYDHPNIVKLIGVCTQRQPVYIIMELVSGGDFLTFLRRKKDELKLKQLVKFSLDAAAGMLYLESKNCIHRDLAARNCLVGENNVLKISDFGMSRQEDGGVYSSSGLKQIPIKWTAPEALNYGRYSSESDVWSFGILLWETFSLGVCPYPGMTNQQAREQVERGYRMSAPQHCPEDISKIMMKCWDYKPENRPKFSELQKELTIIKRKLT
Deoxycytidine kinase, sequence (P27707 whole entry): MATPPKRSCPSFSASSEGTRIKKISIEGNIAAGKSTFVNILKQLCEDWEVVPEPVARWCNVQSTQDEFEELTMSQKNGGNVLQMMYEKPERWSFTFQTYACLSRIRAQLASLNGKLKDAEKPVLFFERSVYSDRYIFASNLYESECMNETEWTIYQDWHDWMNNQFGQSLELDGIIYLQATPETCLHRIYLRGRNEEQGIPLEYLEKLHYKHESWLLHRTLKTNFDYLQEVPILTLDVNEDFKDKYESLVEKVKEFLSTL
RAC-alpha serine/threonine-protein kinase, sequence (P31749 whole entry): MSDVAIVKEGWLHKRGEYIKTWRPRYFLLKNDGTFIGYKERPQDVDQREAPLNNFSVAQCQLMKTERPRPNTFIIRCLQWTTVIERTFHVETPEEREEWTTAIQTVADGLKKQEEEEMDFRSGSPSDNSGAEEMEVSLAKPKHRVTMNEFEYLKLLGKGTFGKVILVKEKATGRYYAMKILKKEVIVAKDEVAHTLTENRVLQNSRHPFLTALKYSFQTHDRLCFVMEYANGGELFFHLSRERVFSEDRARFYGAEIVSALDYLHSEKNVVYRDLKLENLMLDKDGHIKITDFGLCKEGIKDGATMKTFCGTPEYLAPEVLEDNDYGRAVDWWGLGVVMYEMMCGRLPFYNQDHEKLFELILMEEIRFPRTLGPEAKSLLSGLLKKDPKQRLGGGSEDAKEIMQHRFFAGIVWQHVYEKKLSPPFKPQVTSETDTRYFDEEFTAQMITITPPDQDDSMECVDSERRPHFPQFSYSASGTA
Cyclin-dependent kinase 4, sequence (P11802 whole entry): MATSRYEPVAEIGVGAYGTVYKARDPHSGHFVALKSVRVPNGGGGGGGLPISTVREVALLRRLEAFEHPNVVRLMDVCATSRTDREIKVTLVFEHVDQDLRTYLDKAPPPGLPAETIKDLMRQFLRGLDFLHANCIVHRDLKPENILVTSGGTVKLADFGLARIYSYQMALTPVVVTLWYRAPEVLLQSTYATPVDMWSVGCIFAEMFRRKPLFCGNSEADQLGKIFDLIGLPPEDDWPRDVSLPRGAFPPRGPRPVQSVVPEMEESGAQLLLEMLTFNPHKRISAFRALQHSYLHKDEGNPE

## C=CC(=O)Nc1cccc(Nc2nc(Nc3ccc(N4CCN(C(C)=O)CC4)cc3OC)ncc2C(F)(F)F)c1 [ROCILETINIB]
[1]
  Kd: > 30 µM (inactive)
[2]
  Kd: > 30 µM (inactive)
[3]
  Kd: > 30 µM (inactive)
[4]
  Kd: > 30 µM (inactive)
[5]
  Kd: > 30 µM (inactive)
[6]
  Kd: 1.11 µM (active)
[7]
  Kd: > 30 µM (inactive)
[8]
  Kd: > 30 µM (inactive)
[9]
  Kd: > 30 µM (inactive)
[10]
  Kd: > 30 µM (inactive)

## Cc1ccc(C(=O)Nc2ccc(Oc3cc4cnn(C)c4cc3-c3cn[nH]c3)c(F)c2)c(=O)n1-c1ccc(F)cc1 [MERESTINIB]
[1]
  Kd: > 30 µM (inactive)
[2]
  Kd: > 30 µM (inactive)
[3]
  Kd: > 30 µM (inactive)
[4]
  Kd: > 30 µM (inactive)
[5]
  Kd: > 30 µM (inactive)
[6]
  Kd: > 30 µM (inactive)
[7]
  Kd: > 30 µM (inactive)
[8]
  Kd: > 30 µM (inactive)
[9]
  Kd: > 30 µM (inactive)
[10]
  Kd: > 30 µM (inactive)

## O=C(O)c1ccc2c(c1)nc(Nc1cccc(Cl)c1)c1ccncc12 [SILMITASERTIB]
[1]
  Kd: > 30 µM (inactive)
[2]
  Kd: > 30 µM (inactive)
[3]
  Kd: > 30 µM (inactive)
[4]
  Kd: > 30 µM (inactive)
[5]
  Kd: > 30 µM (inactive)
[6]
  Kd: > 30 µM (inactive)
[7]
  Kd: > 30 µM (inactive)
[8]
  Kd: > 30 µM (inactive)
[9]
  Kd: > 30 µM (inactive)
[10]
  Kd: > 30 µM (inactive)

## Cc1c(Cn2c(C)nc3c(C(=O)O)cc(N4CCOCC4)cc32)cccc1C(F)(F)F [GSK-2636771]
[1]
  Kd: > 30 µM (inactive)
[2]
  Kd: > 30 µM (inactive)
[3]
  Kd: > 30 µM (inactive)
[4]
  Kd: > 30 µM (inactive)
[5]
  Kd: > 30 µM (inactive)
[6]
  Kd: > 30 µM (inactive)
[7]
  Kd: > 30 µM (inactive)
[8]
  Kd: > 30 µM (inactive)
[9]
  Kd: > 30 µM (inactive)
[10]
  Kd: > 30 µM (inactive)

## NC(=O)c1ccc(N(C(N)=O)c2c(F)cccc2F)nc1-c1ccc(F)cc1F [VX-702]
[1]
  Kd: > 30 µM (inactive)
[2]
  Kd: > 30 µM (inactive)
[3]
  Kd: > 30 µM (inactive)
[4]
  Kd: > 30 µM (inactive)
[5]
  Kd: > 30 µM (inactive)
[6]
  Kd: > 30 µM (inactive)
[7]
  Kd: > 30 µM (inactive)
[8]
  Kd: > 30 µM (inactive)
[9]
  Kd: > 30 µM (inactive)
[10]
  Kd: > 30 µM (inactive)

## COc1cc2ncnc(Nc3ccc(F)c(Cl)c3)c2cc1NC(=O)/C=C/CN1CCCCC1 [DACOMITINIB ANHYDROUS]
[1]
  Kd: > 30 µM (inactive)
[2]
  Kd: > 30 µM (inactive)
[3]
  Kd: > 30 µM (inactive)
[4]
  Kd: > 30 µM (inactive)
[5]
  Kd: > 30 µM (inactive)
[6]
  Kd: > 30 µM (inactive)
[7]
  Kd: > 30 µM (inactive)
[8]
  Kd: > 30 µM (inactive)
[9]
  Kd: > 30 µM (inactive)
[10]
  Kd: > 30 µM (inactive)

## S=C(NCc1ccc2c(c1)OCO2)N1CCN(c2ncnc3c2oc2ccccc23)CC1 [AMUVATINIB]
[1]
  Kd: > 30 µM (inactive)
[2]
  Kd: > 30 µM (inactive)
[3]
  Kd: > 30 µM (inactive)
[4]
  Kd: > 30 µM (inactive)
[5]
  Kd: > 30 µM (inactive)
[6]
  Kd: > 30 µM (inactive)
[7]
  Kd: > 30 µM (inactive)
[8]
  Kd: > 30 µM (inactive)
[9]
  Kd: > 30 µM (inactive)
[10]
  Kd: > 30 µM (inactive)

## COc1cc(F)c(F)c(Nc2ccc(I)cc2F)c1NS(=O)(=O)C1(C[C@H](O)CO)CC1 [REFAMETINIB]
[1]
  Kd: > 30 µM (inactive)
[2]
  Kd: > 30 µM (inactive)
[3]
  Kd: > 30 µM (inactive)
[4]
  Kd: > 30 µM (inactive)
[5]
  Kd: > 30 µM (inactive)
[6]
  Kd: > 30 µM (inactive)
[7]
  Kd: > 30 µM (inactive)
[8]
  Kd: > 30 µM (inactive)
[9]
  Kd: > 30 µM (inactive)
[10]
  Kd: > 30 µM (inactive)

## O[C@H]1CC[C@H](Nc2ncc3nc(Nc4c(F)cc(F)cc4F)n([C@H]4CCOC4)c3n2)CC1 [TANZISERTIB]
[1]
  Kd: > 30 µM (inactive)
[2]
  Kd: > 30 µM (inactive)
[3]
  Kd: > 30 µM (inactive)
[4]
  Kd: > 30 µM (inactive)
[5]
  Kd: > 30 µM (inactive)
[6]
  Kd: > 30 µM (inactive)
[7]
  Kd: > 30 µM (inactive)
[8]
  Kd: > 30 µM (inactive)
[9]
  Kd: > 30 µM (inactive)
[10]
  Kd: > 30 µM (inactive)

## C#Cc1cccc(Nc2ncnc3cc4c(cc23)OCCOCCOCCO4)c1 [ICOTINIB]
[1]
  Kd: > 30 µM (inactive)
[2]
  Kd: > 30 µM (inactive)
[3]
  Kd: > 30 µM (inactive)
[4]
  Kd: > 30 µM (inactive)
[5]
  Kd: > 30 µM (inactive)
[6]
  Kd: > 30 µM (inactive)
[7]
  Kd: > 30 µM (inactive)
[8]
  Kd: > 30 µM (inactive)
[9]
  Kd: > 30 µM (inactive)
[10]
  Kd: > 30 µM (inactive)

## C=CC(=O)Nc1cc(Nc2nccc(-c3cn(C)c4ccccc34)n2)c(OC)cc1N(C)CCN(C)C [OSIMERTINIB]
[1]
  Kd: > 30 µM (inactive)
[2]
  Kd: 3.66 µM (active)
[3]
  Kd: > 30 µM (inactive)
[4]
  Kd: > 30 µM (inactive)
[5]
  Kd: > 30 µM (inactive)
[6]
  Kd: > 30 µM (inactive)
[7]
  Kd: > 30 µM (inactive)
[8]
  Kd: > 30 µM (inactive)
[9]
  Kd: > 30 µM (inactive)
[10]
  Kd: > 30 µM (inactive)

## FC(F)(F)c1ccc(CNc2ccc(Cc3c[nH]c4ncc(Cl)cc34)cn2)cn1 [PEXIDARTINIB]
[1]
  Kd: > 30 µM (inactive)
[2]
  Kd: > 30 µM (inactive)
[3]
  Kd: > 30 µM (inactive)
[4]
  Kd: > 30 µM (inactive)
[5]
  Kd: > 30 µM (inactive)
[6]
  Kd: > 30 µM (inactive)
[7]
  Kd: > 30 µM (inactive)
[8]
  Kd: > 30 µM (inactive)
[9]
  Kd: > 30 µM (inactive)
[10]
  Kd: > 30 µM (inactive)

## COc1ccc2c(OCc3nnc4ccc(-c5ccccc5)nn34)ccnc2c1 [AMG-208]
[1]
  Kd: > 30 µM (inactive)
[2]
  Kd: > 30 µM (inactive)
[3]
  Kd: > 30 µM (inactive)
[4]
  Kd: > 30 µM (inactive)
[5]
  Kd: > 30 µM (inactive)
[6]
  Kd: > 30 µM (inactive)
[7]
  Kd: > 30 µM (inactive)
[8]
  Kd: > 30 µM (inactive)
[9]
  Kd: > 30 µM (inactive)
[10]
  Kd: > 30 µM (inactive)
